Key:
[1] = target: SIRT6 (Homo sapiens, UniProt Q8N6T7); assay: FDL assay of SIRT6 deacetylase activity (RHKK-Ac-AMC); assay type: biochemical; design: WT (wild-type) full-length human SIRT6 was inserted into the pET28a-LIC vector; made in house; host or cells: Escherichia coli BL21 (DE3); conditions: activation of SIRT6 deacetylation, RHKK-Ac-AMC (75 µM), mean ± s.d., three independent experiments
Method: According to previously described methods, WT (wild-type) full-length human SIRT6 was inserted into the pET28a-LIC vector (Addgene plasmid #26094). The plasmid was transformed into Escherichia coli BL21 (DE3) cells. Protein was purified using a nickel column and gel filtration. Purified protein was dialyzed into assay buffer (50 mM Tris-HCl [pH 8.0], 137 mM NaCl, 2.7 mM KCl, and 1 mM MgCl2) and used in all in vitro assays performed in this study.
For the assessment of SIRT6 deacetylase activity, 5 μM WT SIRT6 was incubated in a 50-μL reaction mixture (2.5 mM NAD^+, 75 μM RHKK-Ac-AMC, compounds/DMSO, and assay buffer) at 37 °C for 2 h, quenched with 40 mM nicotinamide, and developed with 6 mg/mL trypsin for another 30 min at 25 °C. […] Fluorescence intensity was measured using a microplate reader (Synergy H4 Hybrid Reader, BioTek) at excitation and emission wavelengths of 360 nm and 460 nm, respectively. EC50 values were calculated by fitting the data points with the dose-response function in GraphPad Prism V7 (GraphPad Software). Each experiment was independently repeated three times in technical triplicates.

[2] = system: CYP24A1; assay: RT-qPCR of CYP24A1 mRNA in CRC cells; assay type: cell-based, human; conditions: HCT116 and HT29 cells, 1,25(OH)2D3 (5 µM), 48 h
Method: Total RNA was extracted with TRIzol reagent (Invitrogen) according to the manufacturer's instructions. For cDNA synthesis, 1 μg of total RNA was reverse transcribed using a FastKing RT Kit (Tiangen). RT-qPCRs were run in triplicate using SYBR Green master mix (Roche) in an ABI 7900 Thermal Cycler (Applied Biosystems) according to the manufacturer's instructions. RT-qPCRs were performed in triplicate, and the mean cycle threshold (Ct) values were calculated for expression analysis. The mRNA levels of target genes were calculated using the 2^-ΔΔCt method. The expression data were normalized to β-actin expression levels and are presented as the mean ± s.e.m. of three independent experiments.

[3] = Pharmacokinetic studies in mice; assay type: in vivo; design: t1/2 / F (bioavailability): dose or concentration left out as unconfirmed; conditions: C57BL/6J mice
Method: Pharmacokinetic studies were performed by Shanghai Medicilon Inc, China, following standard protocols. Briefly, six-week-old male C57BL/6J mice were grouped randomly (n = 5 per group). […] Two administration formulations were prepared in the vehicle with 5% DMSO, 10% Solutol and 85% saline, with the pH adjusted to 7.0-8.0. After treatment, the mice were sacrificed, and their plasma samples were collected at 5 min, 15 min, 30 min, 1 h, 2 h, 4 h, 8 h, and 24 h. The drug concentration in plasma was analyzed by LC-MS/MS. Pharmacokinetic parameters were calculated using Analyst Software 1.6.3 from mean plasma concentration-time profiles. The area under the curve (AUC) was measured from time versus concentration data by the linear trapezoidal rule. […] The calculation was normalized to relative doses.

Chain of SIRT6 (Q8N6T7 whole entry): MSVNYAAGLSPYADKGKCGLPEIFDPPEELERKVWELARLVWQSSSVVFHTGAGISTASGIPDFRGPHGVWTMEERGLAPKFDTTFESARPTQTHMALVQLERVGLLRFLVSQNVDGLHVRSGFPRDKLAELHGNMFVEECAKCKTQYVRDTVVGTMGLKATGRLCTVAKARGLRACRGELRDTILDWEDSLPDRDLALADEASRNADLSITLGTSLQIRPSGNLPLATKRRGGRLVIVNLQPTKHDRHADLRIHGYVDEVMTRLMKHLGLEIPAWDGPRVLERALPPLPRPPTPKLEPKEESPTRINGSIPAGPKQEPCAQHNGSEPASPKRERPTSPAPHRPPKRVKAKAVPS

Row | SMILES | EC50 [1] | other results
1 | CCCN(C)Cc1cc(NS(=O)(=O)c2cc(Cl)cc(Cl)c2)ccc1S(=O)(=O)Nc1cc(Br)c(F)cc1C [MDL-820] | 38.4 ± 1.8 µM | –
2 | Cc1cc(F)c(Br)cc1NS(=O)(=O)c1ccc(NS(=O)(=O)c2cc(Cl)cc(Cl)c2)cc1CN1CCC(N2CCCCC2)CC1 [MDL-814] | 12.2 ± 0.7 µM | –
3 | CCCCN1CCN(Cc2cc(NS(=O)(=O)c3cc(Cl)cc(Cl)c3)ccc2S(=O)(=O)Nc2cc(Br)c(F)cc2C)CC1 [MDL-816] | 7.1 ± 0.3 µM | –
4 | C=C1/C(=C\C=C2/CCC[C@]3(C)[C@@H]([C@H](C)CCCC(C)(C)O)CC[C@@H]23)C[C@@H](O)C[C@@H]1O [1,25(OH)2D3, 1,25-dihydroxyvitamin D3, reference compound] | – | CYP24A1 transcription [2]: dramatically induced CYP24A1 transcription
5 | CCN(C)Cc1cc(NS(=O)(=O)c2cc(Cl)cc(Cl)c2)ccc1S(=O)(=O)Nc1cc(Br)c(F)cc1C [MDL-819] | 34.1 ± 2.6 µM | –
6 | CCCCN(CC)Cc1cc(NS(=O)(=O)c2cc(Cl)cc(Cl)c2)ccc1S(=O)(=O)Nc1cc(Br)c(F)cc1C [MDL-813] | 15.4 ± 0.4 µM | –
7 | COC(=O)c1cc(NS(=O)(=O)c2cc(Cl)cc(Cl)c2)ccc1S(=O)(=O)Nc1cc(Br)c(F)cc1C [MDL-800, reference compound] | – | F (bioavailability) ([3]; IP vs IV, ratio of AUC normalized to dose): 71.33%; AUC0-t ([3]; IP, plasma, mean of five mice): 17831.51 ng·h/mL; AUC0-∞ ([3]; IP, plasma, mean of five mice): 17883.09 ng·h/mL; Cmax ([3]; IP, plasma, mean of five mice): 6610.46 ng/mL; MRT ([3]; IP, plasma, mean of five mice): 2.47 h; t1/2 ([3]; IP, plasma, mean of five mice): 2.07 h; tmax ([3]; IP, plasma, mean of five mice): 0.50 h
8 | Cc1cc(F)c(Br)cc1NS(=O)(=O)c1ccc(NS(=O)(=O)c2cc(Cl)cc(Cl)c2)cc1CN1CCNCC1 [MDL-812] | 12.8 ± 1 µM | –
9 | COCCCN1CCN(Cc2cc(NS(=O)(=O)c3cc(Cl)cc(Cl)c3)ccc2S(=O)(=O)Nc2cc(Br)c(F)cc2C)CC1 [MDL-815] | 6.5 ± 0.4 µM | –
10 | Cc1cc(F)c(Br)cc1NS(=O)(=O)c1ccc(NS(=O)(=O)c2cc(Cl)cc(Cl)c2)cc1CN1CCCC1CO (stereo not shown) [MDL-822] | 23.9 ± 1 µM | –
11 | Cc1cc(F)c(Br)cc1NS(=O)(=O)c1ccc(NS(=O)(=O)c2cc(Cl)cc(Cl)c2)cc1CN(C)C [MDL-818] | 43.6 ± 3.2 µM | –
12 | Cc1cc(F)c(Br)cc1NS(=O)(=O)c1ccc(NS(=O)(=O)c2cc(Cl)cc(Cl)c2)cc1CN1CCCCC1 [MDL-821] | 12.2 ± 0.9 µM | –
13 | Cc1cc(F)c(Br)cc1NS(=O)(=O)c1ccc(NS(=O)(=O)c2cc(Cl)cc(Cl)c2)cc1CN1CCC(N(C)C)C1 (stereo not shown) [MDL-817] | 9.9 ± 1.5 µM | –

— paper PMC7255010, “Small-molecule activating SIRT6 elicits therapeutic effects and synergistically promotes anti-tumor activity of vitamin D3 in colorectal cancer” (Theranostics, 2020)
